# Where a SMILES comes first, the peptide text is derived from it. Bridges are numbered along the chain shown (N, C = ends).
# Columns and labels:
# [1] = system: Curvularia lunata (CICC 40301); assay: Microbroth dilution anti-fungal assay; format: cell-based; details: spores 1 × 10^5 cells/mL in half-strength potato dextrose broth, 25 °C, 24 h, crystal violet, absorbance 570 nm, listed as chenotide cQ2, read-out: IC50 against Curvularia lunata
# Experimental: (§1) The half-maximal inhibitory concentration levels (IC50) of peptides were determined by a microbroth dilution assay. Fungal spores were harvested from a 4-day-old actively growing fungal plate and suspended in half-strength potato dextrose broth. Spore suspensions (1 × 10^5 cells/mL) were mixed with peptides at varying concentrations in 96-well microplates and incubated at 25 °C for 24 h. The cells were then fixed with 100% methanol for 15 min and stained for 45 min with crystal violet dye. Excess dye was removed with MilliQ water. Elution was performed using 1:1 (v/v) ethanol/0.1 N HCl. The absorbance was measured at 570 nm.
# [2] = system: Fusarium oxysporum (CICC 2532); assay: Microbroth dilution anti-fungal assay; format: cell-based; details: spores 1 × 10^5 cells/mL in half-strength potato dextrose broth, 25 °C, 24 h, crystal violet, absorbance 570 nm, listed as chenotide cQ2, read-out: IC50 against Fusarium oxysporum
# Experimental: as §1
# [3] = system: Rhizoctonia solani (CICC 40259); assay: Microbroth dilution anti-fungal assay; format: cell-based; details: spores 1 × 10^5 cells/mL in half-strength potato dextrose broth, 25 °C, 24 h, crystal violet, absorbance 570 nm, listed as chenotide cQ2, read-out: IC50 against Rhizoctonia solani
# Experimental: as §1
# [4] = system: Alternaria alternata (CICC 2465); assay: Microbroth dilution anti-fungal assay; format: cell-based; details: spores 1 × 10^5 cells/mL in half-strength potato dextrose broth, 25 °C, 24 h, crystal violet, absorbance 570 nm, listed as chenotide cQ2, read-out: IC50 against Alternaria alternata
# Experimental: as §1
# pepsin = assay: Proteolytic stability, pepsin; format: in vitro ADME; details: recommended buffer, RP-HPLC peak area and MALDI-TOF MS, n = 3
# Experimental: (§2) Assessments of thermal, acidic and proteolytic stability were performed as previously described. Purified chenotide cQ2 was incubated at the stated conditions and recommended buffer solution. At each time interval, samples were aliquoted in triplicate and RP-UPLC was performed. The area under the peak was used to determine the amount of chenotide present before and after treatment.
# Stability in human serum = format: in vitro ADME; details: RP-HPLC peak area and MALDI-TOF MS, n = 3
# Experimental: as §2
# Stability in horse serum = format: in vitro ADME; details: RP-HPLC peak area and MALDI-TOF MS, n = 3
# Experimental: as §2
# aminopeptidase I = assay: Proteolytic stability, aminopeptidase I; format: in vitro ADME; details: recommended buffer, RP-HPLC peak area and MALDI-TOF MS, n = 3
# Experimental: as §2
compound,measurement,setting,value
"CC(C)C[C@@H]1NC(=O)CNC(=O)CNC(=O)[C@@H]2CCCN2C(=O)[C@@H]2CSSC[C@@H]3NC(=O)[C@H](Cc4ccccc4)NC(=O)CNC(=O)[C@H](Cc4ccccc4)NC(=O)[C@H](CCCCN)NC(=O)[C@H](CO)NC(=O)[C@H](CSSC[C@H](NC(=O)[C@H](CCC(=O)O)NC(=O)CNC(=O)[C@H](C)N)C(=O)N[C@@H](C(C)C)C(=O)N[C@@H](CCCNC(=N)N)C(=O)NCC(=O)N[C@@H](CCCNC(=N)N)C(=O)N2)NC(=O)[C@H](CSSC[C@@H](C(=O)NCC(=O)NCC(=O)O)NC(=O)[C@H](Cc2ccc(O)cc2)NC(=O)[C@H](C)NC(=O)[C@@H]2CCCN2C(=O)CNC(=O)[C@H](CO)NC(=O)CNC3=O)NC1=O [cQ2] (H-AGECVRGRCPGGLCCSKFGFCGSGPAYCGG-OH; disulfide 4-15, 9-21, 14-28)",IC50,[1],~5 µM
same,IC50,[2],~0.3 µM
same,IC50,[3],~3 µM
same,IC50,[4],~9 µM
same,Peptide retained after pepsin treatment,pepsin,> 80%
same,Peptide retained after human serum treatment,Stability in human serum,> 80%
same,Peptide retained after horse serum treatment,Stability in horse serum,> 80%
same,Peptide retained after aminopeptidase I treatment,aminopeptidase I,> 80%
